Legend:
BorF = molecular target: T1, BorF (uncultured bacterium, UniProt M9QXS1); assay: NADH depletion at […] nm; assay type: biochemical; conditions: 25 mM HEPES pH 7.5, room temperature
T1 construct: full-length residues 1-196 plus an N-terminal Pro after PreScission cleavage; His6-MBP tag removed; synthetic gene, E. coli Rosetta2(DE3) pLysS; homodimer
T1 sequence (M9QXS1 1-196): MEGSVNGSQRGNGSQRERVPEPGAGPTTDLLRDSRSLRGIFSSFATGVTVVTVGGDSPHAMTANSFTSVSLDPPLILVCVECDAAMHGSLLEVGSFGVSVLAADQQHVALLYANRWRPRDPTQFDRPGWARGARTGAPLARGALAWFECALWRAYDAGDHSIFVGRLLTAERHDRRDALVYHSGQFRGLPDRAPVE

[1] = molecular target: BorF (soil bacterial metagenome from the Anza-Borrego desert); assay: SEC; BorF alone after tag cleavage, Superdex 200, 20 mM Tris pH 7.5, 150 mM NaCl; single peak at 78.2 mL

## Cc1cc2nc3c(=O)[nH]c(=O)nc-3n(C[C@H](O)[C@H](O)[C@H](O)COP(=O)(O)O)c2cc1C [FMN]
BorF; apo-BorF, 25 μM FMN, 100 μM NADH
  NADH depletion at 340 nm: BorF utilizes FAD as a substrate but is also able to reduce FMN and riboflavin

## NC(=O)C1=CN([C@@H]2O[C@H](COP(=O)(O)OP(=O)(O)OC[C@H]3O[C@@H](n4cnc5c(N)ncnc54)[C@H](O)[C@@H]3O)[C@@H](O)[C@H]2O)C=CC1 [NADH]
BorF; apo-BorF 0.2 μM, 25 μM FAD
  NADH depletion at 340 nm: BorF oxidizes NADH to NAD^+, as determined by NADH depletion monitored by absorbance

## BorF (enzyme)
[1]
  stoichiometry N: 2

From article PMC13327496, “The X‐Ray Crystal Structure of BorF, the Flavin Reductase Subunit of a Two‐Component Flavin‐Dependent Tryptophan Halogenase” (Proteins, 2026)
